Results from publication PMC12195967, “Cobalt(II) Complexes of 4′–Nitro–Fenamic Acid: Characterization and Biological Evaluation” (Molecules, 2025).
Read-outs that look alike come from different tables or passages of the source.

Tests used:
[1] = ABTS radical cation scavenging; settings: compounds 0.1 mM; absorbance 734 nm after 1 min
Method: The ABTS-scavenging was measured through the discoloration of a dark green solution containing the cationic radical ABTS^•+, which was induced from the oxidation derived from hydrogen-donating antioxidants, either complexes or standards, and is often considered a marker of total oxidation capacity. […] Such an increase in activity upon coordination is expected for metal–NSAID complexes.
(§1) S1 Antioxidant activity assay
(§2) The antioxidant activity of the compound was evaluated via the ability to scavenge in vitro free radicals such as DPPH and ABTS and to reduce H2O2. All the experiments were carried out at least in triplicate and the standard deviation of absorbance was less than 10% […]
S1.2 Assay of radical cation ABTS−scavenging activity
The ABTS assay was performed to determine the activity of the compounds to scavenge the radical cation ABTS. Initially, a water solution of ABTS was prepared (2 mM).
ABTS radical cation (ABTS+·) was produced by the reaction of ABTS stock solution with potassium persulfate (0.17 mM) and the mixture was stored in the dark at room temperature for 12−16 h before its use. The ABTS was oxidized incompletely because the stoichiometric reaction ratio of ABTS and potassium persulfate is 1:0.5. The absorbance became maximal and stable only after more than 6 h of reaction although the oxidation of the ABTS started immediately. The radical was stable in this form for more than 2 days when allowed to stand in the dark at room temperature. Afterwards, the ABTS+· solution was diluted in ethanol to an absorbance of 0.70 at 734 nm and 10 μL of diluted compounds or standards (0.1 mM) in DMSO were added. The absorbance was recorded out exactly 1 min after initial mixing.
The ABTS–radical scavenging activity of the compounds was expressed as the percentage inhibition of the absorbance of the initial ABTS solution (ABTS%). […]

CT DNA = settings: cited from earlier work
[2] = Reduction of hydrogen peroxide; settings: compounds 0.1 mM; phosphate buffer pH 7.4; 10 min
Method: Harmful hydroxyl radicals are released when hydrogen peroxide interacts with transition metal ions, leading to oxidative stress. Consequently, both oxidative stress and the production of reactive oxygen species could be reduced by ^•OH scavengers and H2O2 reducing agents.
as §1
The antioxidant activity of the compound was evaluated via the ability to scavenge in vitro free radicals such as DPPH and ABTS and to reduce H2O2. […]
S1.3 Reduction of hydrogen peroxide
The ability of the compounds to reduce hydrogen peroxide (H2O2) was estimated according to the method described in the literature. The reaction mixture contained 20 μL of each of the tested compounds (0.1 mM) and 5 μL H2O2 solution (40 mM) in phosphate […]
buffer (50 mM, pH 7.4). The absorbance was measured at 230 nm after 10 min. The antioxidant activity (reduction of H2O2) of the compounds was expressed as the percentage decrease of the initial H2O2 solution (H2O2%). […]

DPPH radical scavenging = settings: compounds 0.1 mM, DPPH 0.1 mM in ethanol
Method: Antioxidant compounds able to neutralize DPPH radicals are increasingly recognized due to their capability of combating cancer, slowing down the aging process and regulating inflammation. As a result, they could potentially offer protection against rheumatoid arthritis and inflammation. […] In this experiment, NDGA and BHT were used as reference compounds and measurements took place at 30 min and 60 min. […] Such low scavenging activity of DPPH radicals is rather common for metal–NSAID complexes.
as §1, §2
S1.1 Determination of the reducing activity of the radical DPPH
To an ethanolic solution of DPPH (0.1 mM) an equal volume solution of the compounds (0.1 mM) in ethanol was added. Absolute ethanol was also used as control solution. The absorbance at 517 nm was recorded at room temperature after 30 and 60 min in order to examine the possible existence of a potential time−dependence of the DPPH radical scavenging activity.[1] The DPPH−scavenging activity of the compounds was expressed as the percentage reduction of the absorbance values of the initial DPPH solution (DPPH%). NDGA and BHT were used as reference compounds. […]

[3] = commercially available fenamates

**Q.** For Cc1c(C)c2c(c(C)c1O)CCC(C)(C(=O)O)O2 (stereo not shown) [Trolox, 6–hydroxy–2,5,7,8–tetramethylchroman–2–carboxylic acid, reference compound], which “%ABTS radical scavenging activity (ABTS%)” value [1] is on record?
**A.** Its value is 96.50 ± 0.05%.

**Q.** For O=C(O)c1ccccc1Nc1cccc(C(F)(F)F)c1 [flufenamic acid], which “DNA-binding constant Kb” value (CT DNA; [3]) is on record?
**A.** Its value is 270000 M⁻¹.

**Q.** With O=C1O[C@H]([C@@H](O)CO)C(O)=C1O [L-ascorbic acid, reference compound] as the molecule, how does the “H2O2-reducing ability (H2O2%)” value [2] read?
**A.** The value was 58.90 ± 0.52%.

**Q.** Which “DNA-binding constant Kb” value (CT DNA; classic DNA intercalator) does the source give for CC[n+]1c(-c2ccccc2)c2cc(N)ccc2c2ccc(N)cc21 [EB, ethidium bromide] here?
**A.** Its value is 123000 M⁻¹.

**Q.** For Cc1cccc(Nc2ccccc2C(=O)O)c1C [mefenamic acid], which “DNA-binding constant Kb” value (CT DNA; [3]) is on record?
**A.** The value was 105000 M⁻¹.

**Q.** With CC(Cc1ccc(O)c(O)c1)C(C)Cc1ccc(O)c(O)c1 (stereo not shown) [NDGA, nordihydroguaiaretic acid, reference compound] as the molecule, how does the “%DPPH-scavenging ability (DPPH%), 30 min” value (DPPH radical scavenging) read?
**A.** Its value is 94.33 ± 0.11%.

**Q.** And the “%DPPH-scavenging ability (DPPH%), 60 min” value (DPPH radical scavenging)?
**A.** Its value is 90.47 ± 0.42%.

**Q.** With Cc1c(Cl)cccc1Nc1ccccc1C(=O)O [tolfenamic acid] as the molecule, how does the “DNA-binding constant Kb” value (CT DNA; [3]) read?
**A.** The value was 50000 M⁻¹.

**Q.** What does the source list for Cc1cc(C(C)(C)C)c(O)c(C(C)(C)C)c1 [BHT, butylated hydroxytoluene, reference compound]?
**A.** %DPPH-scavenging ability (DPPH%), 30 min (DPPH radical scavenging): 70.83 ± 0.03%; %DPPH-scavenging ability (DPPH%), 60 min (DPPH radical scavenging): 83.39 ± 0.39%
